These results are taken from patent US12611404B2, “Aza-aryl 1H-pyrazol-1-yl benzene sulfonamides” (ChemoCentryx, Inc., priority 2012, dated 2026).

In this assay the target is T1, CCR(9) (Homo sapiens, UniProt P51686).
T1 construct: CCR(9)-expressing cells such as T cell line MOLT-4 cells; host or cells: MOLT-4 cells
T1 sequence (P51686 1-369): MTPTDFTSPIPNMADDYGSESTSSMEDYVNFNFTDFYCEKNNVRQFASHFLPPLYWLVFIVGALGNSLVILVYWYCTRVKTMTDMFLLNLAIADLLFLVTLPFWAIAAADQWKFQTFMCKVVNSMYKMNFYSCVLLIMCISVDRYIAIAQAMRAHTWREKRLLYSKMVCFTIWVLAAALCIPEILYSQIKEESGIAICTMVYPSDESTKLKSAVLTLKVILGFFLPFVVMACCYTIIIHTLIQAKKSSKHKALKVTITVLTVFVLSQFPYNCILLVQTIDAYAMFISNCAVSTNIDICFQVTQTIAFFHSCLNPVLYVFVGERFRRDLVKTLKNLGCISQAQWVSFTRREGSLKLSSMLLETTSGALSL
In words: serum chemotaxis (migration) assay, MOLT-4 cells in human serum, TECK. The class given is cell-based. The settings on record: read-out: A2. The protocol: In vitro cell chemotaxis assays can be performed (but are not limited to this format) using the 96-well microchamber (called ChemoTX™). The ChemoTX™ system is well known to those skilled in the art as a type of chemotactic/cell migration instrument. In this assay, CCR(9)-expressing cells (such as MOLT-4) are first incubated with a compound of interest, such as a possible CCR(9) antagonist at increasing concentrations. Typically, fifty thousand cells per well are used, but the amount can range from 10^3-10^6 cells per well. The chemokine ligand (for example, CCR(9) ligand TECK, typically at 50 nM (but can range from 5-100 nM)), is placed at the lower chamber and the migration apparatus is assembled. Twenty microliters of test compound-treated cells are then placed onto the membrane. Migration is allowed to take place at 37° C. for a period of time, typically 2.5 hours for CCR(9). At the end of the incubation, the number of cells that migrated across the membrane into the lower chamber is then quantified. The efficacy of a compound as an inhibitor of chemokine-mediated cell migration can be calculated as an IC50 (the concentration needed to reduce cell migration by 50%) or IC90 (for 90% inhibition).
MOLT-4 cells were obtained from the American Type Culture Collection (Manassas, VA) and cultured in RPMI tissue culture medium supplemented with 10% fetal calf serum (FCS) in a humidified 5% CO2 incubator at 37° C. Recombinant human chemokine proteins TECK was obtained from R&D Systems (Minneapolis, MN). ChemoTX® chemotaxis microchambers were purchased from Neuro Probe (Gaithersburg, MD). CyQUANT® cell proliferation kits were purchased from Molecular Probes (Eugene, Oregon). Calcium indicator dye Fluo-4 AM was purchased from Molecular Devices (Mountain View, CA).
A serum chemotaxis assay was used to determine the efficacy of potential receptor antagonists at blocking the migration mediated through chemokine receptors, such as CCR(9). This assay was performed using the ChemoTX® microchamber system with a 5-μm pore-sized polycarbonate membrane. MOLT-4 cells were collected by centrifugation at 400×g at room temperature, then suspended at 50 million/ml in human serum, containing 50 mM HEPES (final pH of 7.2). The compound being tested or an equivalent volume of its solvent (DMSO) was then added to the cell/serum mixture at a final DMSO concentration of 0.125% (v/v), and this mixture was then incubated together at 37° C. for one hour. Separately, recombinant human TECK was diluted with chemotaxis buffer (HBSS+0.1% BSA), generally spanning a range from 0.1 nM to 500 nM, after which 29 μl of diluted chemokine was placed in the lower wells of the ChemoTX® plate. The 5-μm (pore size) polycarbonate membrane was placed onto the plate, and 20 μL of the cell/compound mixture was transferred onto each well of the membrane. The plates were incubated at 37° C. for 90 minutes, after which the polycarbonate membranes were removed and 5 μl of the DNA-intercalating agent CyQUANT (Invitrogen, Carlsbad, CA) was added to the lower wells. The amount of fluorescence, corresponding to the number of migrated cells, was measured using a Spectrafluor Plus plate reader (TECAN, San Jose, CA).
The A2 values were calculated from the following equation, comparing the efficacy of the test compound with that of the DMSO-only control at equi-active chemokine levels: Log(A2)=log[drug(M)]−log [(A′/A)−1]
where A reflects the potency of the agonist in the absence of antagonist and A′ reflects the potency of the agonist in the presence of antagonist at a given concentration of drug ([drug(M)]).
Take `Cc1cc(NS(=O)(=O)c2ccc(C(C)(C)C)cc2)n(-c2ccc(N)c3ncccc23)n1`: the IC50 was under 500 nM. As for `CC(C)Oc1ccc(S(=O)(=O)Nc2cc(C(F)(F)F)nn2-c2cccc3ncccc23)cc1`, the figure is over 2500 nM. Take `CC(C)(C)c1ccc(S(=O)(=O)Nc2cc(CF)nn2-c2cccc3ncccc23)cc1`: the IC50 was under 500 nM. Take `CC(C)(C)c1ccc(S(=O)(=O)Nc2cc(C#N)nn2-c2cccc3ncccc23)cc1`: the IC50 is 501 to 2500 nM. Regarding `Cc1cc(NS(=O)(=O)c2ccc(C(C)(C)C)cc2)n(-c2ccc(F)c3ncccc23)n1`, the IC50 lay within 501 to 2500 nM. As for `Cc1cc(NS(=O)(=O)c2ccc(C(C)(C)C)c(F)c2)n(-c2ccc(Br)c3ncccc23)n1`, the figure is under 500 nM; as for `CCOc1ccc(-n2nc(C)cc2NS(=O)(=O)c2ccc(C(C)(C)C)cc2)c2cccnc12`, 501 to 2500 nM. As for `CC(C)c1ccc(S(=O)(=O)Nc2cc(C(F)(F)F)nn2-c2cccc3cnccc23)cc1`, the figure is 501 to 2500 nM. For `Cc1cc(NS(=O)(=O)c2ccc(OC(C)C)cc2)n(-c2cccc3cnccc23)n1` the value was 501 to 2500 nM; for `Cc1cc(NS(=O)(=O)c2ccc(C(C)(C)C)cc2)n(-c2cccc3c2ccc[n+]3[O-])n1`, 501 to 2500 nM; for `Cc1cc(NS(=O)(=O)c2ccc(OC(C)C)c(F)c2)n(-c2cccc3ncccc23)n1`, 501 to 2500 nM. Consider `CC(C)(C)c1ccc(S(=O)(=O)Nc2cc(C(F)(F)F)nn2-c2cccc3ncccc23)cc1`, for which the IC50 was 501 to 2500 nM. As for `Cc1cc(NS(=O)(=O)c2ccc(C(C)(C)C)cc2)n(-c2ccc(Br)c3ncccc23)n1`, the figure is 501 to 2500 nM; as for `Cc1cc(NS(=O)(=O)c2ccc(C(C)(C)C)cc2)n(-c2nccc3ncccc23)n1`, 501 to 2500 nM. As for `Cc1cc(NS(=O)(=O)c2ccc(C(C)(C)C)c(F)c2)n(-c2cccc3nc(N)ccc23)n1`, the IC50 was under 500 nM. For `COc1ccc(-n2nc(C)cc2NS(=O)(=O)c2ccc(C(C)(C)C)c(F)c2)c2cccnc12` the value was under 500 nM; for `CCC(C)(C)c1ccc(S(=O)(=O)Nc2cc(C)nn2-c2cccc3ncccc23)cc1`, 501 to 2500 nM.

Regarding `Cc1cc(NS(=O)(=O)c2ccc(C(C)(C)C)cc2)n(-c2ccc(C)c3ncccc23)n1`, the IC50 is 501 to 2500 nM. For `CC(C)Oc1ccc(S(=O)(=O)Nc2cc(C(F)(F)F)nn2-c2cccc3cnccc23)cc1`, the IC50 was in the range of 501 to 2500 nM. For `Cc1cc(NS(=O)(=O)c2ccc(C(C)(C)C)cc2)n(-c2ccnc3cc(F)ccc23)n1` the value was 501 to 2500 nM; for `Cc1cc(NS(=O)(=O)c2ccc(C(C)(C)C)cc2)n(-c2cccc3cnccc23)n1`, 501 to 2500 nM; for `Cc1ccc2c(-n3nc(C)cc3NS(=O)(=O)c3ccc(C(C)(C)C)cc3)cccc2n1`, under 500 nM.

`Cc1cc(NS(=O)(=O)c2ccc(C(C)C)cc2)n(-c2cccc3cnccc23)n1`: the IC50 lay in the range of 501 to 2500 nM. As for `Cc1cc(NS(=O)(=O)c2ccc(OCC(C)C)cc2)n(-c2cccc3ncccc23)n1`, the figure is over 2500 nM; as for `Cc1cc(NS(=O)(=O)c2ccc(C(C)(C)C)cc2)n(-c2cccc3ncccc23)n1`, under 500 nM; as for `Cc1cc(NS(=O)(=O)c2ccc(C(C)(C)C)cc2)n(-c2cccc3nc(N)ccc23)n1`, under 500 nM. For the compound `Cc1cc(NS(=O)(=O)c2ccc(C(C)(C)C)c(F)c2)n(-c2cccc3ncccc23)n1`, the IC50 was under 500 nM. As for `Cc1cc(NS(=O)(=O)c2ccc(OC(F)(F)F)cc2)n(-c2cccc3ncccc23)n1`, the figure is 501 to 2500 nM; as for `CC(C)c1ccc(S(=O)(=O)Nc2cc(C(F)(F)F)nn2-c2cccc3ncccc23)cc1`, 501 to 2500 nM; as for `Cc1cc(NS(=O)(=O)c2ccc(C(C)(C)C)cc2)n(-c2nncc3ccccc23)n1`, 501 to 2500 nM. For `Cc1cc(NS(=O)(=O)c2ccc(C(C)(C)C)c(F)c2)n(-c2ccc(C#N)c3ncccc23)n1` the value was under 500 nM; for `CC(C)(C)c1ccc(S(=O)(=O)Nc2cc(CF)nn2-c2cccc3ncccc23)cc1F`, under 500 nM; for `Cc1cc(NS(=O)(=O)c2ccc(C(C)(C)C)cc2)n(-c2cccc3c(N)nccc23)n1`, 501 to 2500 nM. Consider `Cc1cc(NS(=O)(=O)c2ccc(C(C)(C)C)cc2)n(-c2ccc(Cl)c3ncccc23)n1`, for which the IC50 is under 500 nM. For `Cc1cc(-n2nc(C)cc2NS(=O)(=O)c2ccc(C(C)(C)C)cc2)c2ccccc2n1` the value was 501 to 2500 nM. As for `COc1cnc(-n2nc(C)cc2NS(=O)(=O)c2ccc(C(C)(C)C)cc2)c2ccccc12`, the figure is 501 to 2500 nM. As for `CC(C)Oc1ccc(S(=O)(=O)Nc2cc(CF)nn2-c2cccc3ncccc23)cc1`, the figure is 501 to 2500 nM. As to `CC(C)(C)c1ccc(S(=O)(=O)Nc2cc(C(F)F)nn2-c2cccc3ncccc23)cc1F`, the IC50 was in the range of 501 to 2500 nM. As for `Cc1cc(NS(=O)(=O)c2ccc(C(C)(C)C)cc2)n(-c2ccnc3ccccc23)n1`, the figure is 501 to 2500 nM. For the compound `CC(C)c1ccc(S(=O)(=O)Nc2cc(C(F)F)nn2-c2cccc3ncccc23)cc1`, the IC50 lay within 501 to 2500 nM.

As for `Cc1cc(NS(=O)(=O)c2ccc(C(C)(C)C)cc2F)n(-c2cccc3ncccc23)n1`, the IC50 fell in the range of 501 to 2500 nM. For the compound `Cc1cc(NS(=O)(=O)c2ccc(C(C)(C)C)c(F)c2)n(-c2ccc(N)c3ncccc23)n1`, the IC50 was in the range of 501 to 2500 nM. For `Cc1cc(NS(=O)(=O)c2cc(F)c(C(C)(C)C)c(F)c2)n(-c2cccc3ncccc23)n1` the value was under 500 nM; for `COCc1cc(NS(=O)(=O)c2ccc(C(C)(C)C)cc2)n(-c2cccc3ncccc23)n1`, under 500 nM; for `Cc1cc(NS(=O)(=O)c2ccc(C(C)(C)C)cc2)n(-c2ccc(C#N)c3ncccc23)n1`, 501 to 2500 nM. As for `Cc1cc(NS(=O)(=O)c2ccc(C(C)(C)C)cc2)n(-c2ncc(Cl)c3ccccc23)n1`, the figure is over 2500 nM; as for `Cc1cc(NS(=O)(=O)c2ccc(C(C)(C)C)cc2)n(-c2cnc(N)c3ccccc23)n1`, 501 to 2500 nM; as for `CC(C)(C)c1ccc(S(=O)(=O)Nc2cc(C(F)F)nn2-c2cccc3ncccc23)cc1`, under 500 nM. On to `Cc1cc(-n2nc(C)cc2NS(=O)(=O)c2ccc(C(C)(C)C)cc2)c2cccnc2c1`, for which the IC50 was 501 to 2500 nM. Take `Cc1cc(NS(=O)(=O)c2ccc(C(C)C)cc2)n(-c2cccc3ncccc23)n1`: the IC50 is 501 to 2500 nM. As for `Cc1cc(NS(=O)(=O)c2ccc(C(C)(C)C)cc2)n(-c2ccnc3c(F)cccc23)n1`, the figure is 501 to 2500 nM; as for `Cc1cc(NS(=O)(=O)c2ccc(C(C)(C)C)cc2)n(-c2cncc3ccccc23)n1`, 501 to 2500 nM; as for `Cc1cc(NS(=O)(=O)c2ccc(C(C)(C)C)cc2)n(-c2n[nH]c(=O)c3ccccc23)n1`, 501 to 2500 nM.

With `Cc1cc(NS(=O)(=O)c2ccc(C(C)(C)C)cc2)n(-c2cccc3c[n+]([O-])ccc23)n1`, the IC50 is over 2500 nM.

Regarding `Cc1cc(NS(=O)(=O)c2ccc(C(C)(C)C)cc2)n(-c2nccc3ccccc23)n1`, the IC50 lay within 501 to 2500 nM. For `CC(C)Oc1ccc(S(=O)(=O)Nc2cc(C(F)F)nn2-c2cccc3ncccc23)cc1` the value was under 500 nM; for `Cc1cc(NS(=O)(=O)c2ccc(C(C)(C)C)c(Cl)c2)n(-c2cccc3ncccc23)n1`, 501 to 2500 nM; for `CC(C)(C)c1ccc(S(=O)(=O)Nc2ccnn2-c2cccc3ncccc23)cc1`, over 2500 nM. As for `Cc1cc(NS(=O)(=O)c2ccc(C(C)(C)C)cc2)n(-c2cc(N)nc3ccccc23)n1`, the figure is 501 to 2500 nM.
